Active and inactive are the calls of the source. The calls are words filed in the database; no cut-off is given here.
What was measured:
PBMC [1] = experiment: Effects of compound on INF-gamma production in anti-CD3/CD28-stimulated human PBMCs assessed as increase in INF-gamma level after 2 days by ELISA; assay type: functional, tissue-based; conditions: dose 1-10 µM, time 2.0 day
PBMC [2] = experiment: Effects of compound on IL-17A production in anti-CD3/CD28-stimulated human PBMCs assessed as fold decrease in IL-17A level at 30 uM after 2 days by ELISA; assay type: functional, tissue-based; conditions: time 2.0 day
[3] = Ratio of FC for induction of IL-2 production in anti-CD3/CD28-stimulated human PBMCs at 1 uM after 24 hrs in presence of ZM-241385 and MRS-1754 to FC for induction of IL-2 production in anti-CD3/CD28-stimulated human PBMCs at 1 uM after 24 hrs in presence of ZM-241385 and absence of MRS-1754; assay type: functional, PBMC
[4] = target: T1, Probable G-protein coupled receptor 174 (Homo sapiens, UniProt Q9BXC1); experiment: Antagonist activity at GPR174 (unknown origin) expressed in HEK293 cells assessed as inhibition of PS-induced GPR174 signaling at 1 to 2 uM incubated for 15 mins by GloSensor assay; assay type: functional, cell-based; parameters: scale not given: the % may be the effect or the level left; conditions: filed as antagonist, dose 1-2 µM
T1 sequence (Q9BXC1 whole entry): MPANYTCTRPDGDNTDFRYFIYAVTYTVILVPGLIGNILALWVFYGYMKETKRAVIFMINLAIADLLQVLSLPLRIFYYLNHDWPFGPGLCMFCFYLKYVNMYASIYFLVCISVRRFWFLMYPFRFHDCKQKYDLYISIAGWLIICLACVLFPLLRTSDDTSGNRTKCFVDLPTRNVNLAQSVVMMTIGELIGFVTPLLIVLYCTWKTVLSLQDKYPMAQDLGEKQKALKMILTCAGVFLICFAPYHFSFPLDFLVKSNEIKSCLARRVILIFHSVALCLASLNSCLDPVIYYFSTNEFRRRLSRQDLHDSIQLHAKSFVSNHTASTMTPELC

[5] = target: T1, Probable G-protein coupled receptor 174; experiment: Antagonist activity at GPR174 (unknown origin) expressed in HEK293 cells assessed as inhibition of PS-induced GPR174 signaling incubated for 15 mins by GloSensor assay; assay type: functional, cell-based; conditions: filed as antagonist
PBMC [6] = experiment: Effect of compound on human PBMCs assessed as reduction in AREG expression in CD4-positive T cells after 1 day by flow cytometric analysis; assay type: functional, cell-based; conditions: dose 1.25-5 µM
PBMC [7] = experiment: Effect of compound on human PBMCs assessed as reduction in PD-L1 expression in CD4-positive T cells after 1 day by flow cytometric analysis; assay type: functional, cell-based; conditions: dose 1.25-5 µM
PBMC [8] = experiment: Effect of compound on human PBMCs assessed as reduction in CTLA4 expression in memory non-Treg cells after 1 day by flow cytometric analysis; assay type: functional, cell-based; conditions: dose 0.19-6 µM
PBMC [9] = experiment: Effect of compound on human PBMCs assessed as reduction in CTLA4 expression in memory Treg cells after 1 day by flow cytometric analysis; assay type: functional, cell-based; conditions: dose 0.19-6 µM
PBMC [10] = experiment: Effect of compound on human PBMCs assessed as reduction in CTLA4 expression in non-Treg cells after 1 day by flow cytometric analysis; assay type: functional, cell-based; conditions: dose 0.19-6 µM
PBMC [11] = experiment: Effect of compound on human PBMCs assessed as reduction in CTLA4 expression in naive Treg cells after 1 day by flow cytometric analysis; assay type: functional, cell-based; conditions: dose 0.19-6 µM
[12] = Effects of compound on anti-CD3/CD28-stimulated human PBMCs assessed as non-T cells population at 10 uM after 2 days by flow cytometric analysis; assay type: functional, PBMC; conditions: time 2 day
[13] = Effects of compound on anti-CD3/CD28-stimulated human PBMCs assessed as CD8-positive cells population at 10 uM after 2 days by flow cytometric analysis; assay type: functional, PBMC; conditions: time 2 day
[14] = target: T1, Probable G-protein coupled receptor 174; experiment: Inverse agonist activity at human GPR174 assessed as fold decrease in Gs signalling activity by CRA; assay type: functional; conditions: filed as inverse agonist
[15] = Effects of compound on anti-CD3/CD28-stimulated human PBMCs assessed as CD4-positive cells population at 10 uM after 2 days by flow cytometric analysis; assay type: functional, PBMC; conditions: time 2 day
[16] = target: T1, Probable G-protein coupled receptor 174; experiment: Inverse agonist activity at GPR174 in anti-CD3/CD28-stimulated human PBMCs assessed as increase in FoxP3-positive Helios-negative T cells at 100 uM after 3 days by flow cytometric analysis; assay type: functional, tissue-based; conditions: PBMC, filed as inverse agonist, time 3.0 day
[17] = target: T1, Probable G-protein coupled receptor 174; experiment: Inverse agonist activity at GPR174 in anti-CD3/CD28-stimulated human PBMCs assessed as reduction in FoxP3-positive Helios-positive nTreg cells at 100 uM after 7 days by flow cytometric analysis; assay type: functional, tissue-based; conditions: PBMC, filed as inverse agonist, time 7.0 day
Splenocyte [18] = experiment: Effects of compound on IL-2 production in anti-CD3/CD28-stimulated GPR174 knockdown mouse splenocytes assessed as increase in IL-2 levels at 10 uM after 48 hrs; assay type: functional, cell-based
PBMC [19] = experiment: Effects of compound on IL-2 production in anti-CD3/CD28-stimulated human PBMCs assessed as increase in IL-2 level after 3 days by ELISA; assay type: functional, tissue-based; conditions: dose 3-60 µM, time 3.0 day
[20] = target: T1, Probable G-protein coupled receptor 174; experiment: Inverse agonist activity at GPR174 in anti-CD3/CD28-stimulated human PBMCs assessed as reduction in FoxP3-positive Helios-positive nTreg cells at 30 uM after 7 days by flow cytometric analysis; assay type: functional, tissue-based; conditions: PBMC, filed as inverse agonist, time 7.0 day
PBMC [21] = experiment: Effects of compound on IL-6 production in anti-CD3/CD28-stimulated human PBMCs assessed as fold increase in IL-6 level at 30 uM after 2 days by ELISA; assay type: functional, tissue-based; conditions: time 2.0 day
PBMC [22] = experiment: Effects of compound on INF-gamma production in anti-CD3/CD28-stimulated human PBMCs assessed as fold increase in INF-gamma level at 30 uM after 2 days by ELISA; assay type: functional; conditions: time 2.0 day
[23] = Induction of TNF production in anti-CD3/CD28-stimulated human PBMCs assessed as fold increase in TNF level at 1 to 2 uM after 24 hrs in presence of A2aR inhibitor ZM-241385 by ELISA; assay type: functional, PBMC; conditions: dose 1-2 µM
[24] = Ratio of FC for induction of INF-gamma production in anti-CD3/CD28-stimulated human PBMCs at 1 uM after 24 hrs in presence of ZM-241385 and MRS-1754 to FC for induction of INF-gamma production in anti-CD3/CD28-stimulated human PBMCs at 1 uM after 24 hrs in presence of ZM-241385 and absence of MRS-1754; assay type: functional, PBMC
[25] = Ratio of FC for induction of INF-gamma production in anti-CD3/CD28-stimulated human PBMCs at 1 uM after 24 hrs in presence of PBF-509 and MRS-1754 to FC for induction of INF-gamma production in anti-CD3/CD28-stimulated human PBMCs at 1 uM after 24 hrs in presence of PBF-509 and absence of MRS-1754; assay type: functional, PBMC
[26] = Induction of IL-2 production in anti-CD3/CD28-stimulated human PBMCs assessed as fold increase in IL-2 level at 1 uM after 24 hrs in presence of 0.1 uM A2aR inhibitor PBF-509 by ELISA; assay type: functional, PBMC
[27] = Ratio of FC for induction of TNF production in anti-CD3/CD28-stimulated human PBMCs at 1 uM after 24 hrs in presence of PBF-509 and MRS-1754 to FC for induction of TNF production in anti-CD3/CD28-stimulated human PBMCs at 1 uM after 24 hrs in presence of PBF-509 and absence of MRS-1754; assay type: functional, PBMC
CD4+ve Th = experiment: Reduction in AREG expression in human CD4-positive T-cells at 10 uM in presence of A2aR inhibitor ZM-241385; assay type: functional
Splenocyte [28] = experiment: Effects of compound on IL-2 production in anti-CD3/CD28-stimulated wild-type mouse spleenocytes assessed as fold increase in IL-2 level at 0.3 to 1 uM after 2 days; assay type: functional; conditions: dose 0.3-1 µM; time 2 day

CC1CCN(c2cc(N3CCN(S(=O)(=O)c4ccccc4)CC3)c([N+](=O)[O-])cc2F)CC1
Activity (PBMC [1]): Dose-Dependent Effect
Activity (PBMC [2]): Active
Ratio [3]: 0.7
Activity [4]: 100%
Activity [5]: Dose-Dependent Effect
Activity (PBMC [6]): Dose-Dependent Effect
Activity (PBMC [7]): Dose-Dependent Effect
Activity (PBMC [8]): Dose-Dependent Effect
Activity (PBMC [9]): Dose-Dependent Effect
Activity (PBMC [10]): Dose-Dependent Effect
Activity (PBMC [11]): Dose-Dependent Effect
Activity [12]: 33.1%
Activity [13]: 27.5%
fold change (FC) [14]: 0.2
Activity [15]: 31.8%
Activity [16]: Active
Activity [17]: Active
Activity (Splenocyte [18]): inactive
Activity (PBMC [19]): Dose-Dependent Effect
Activity [20]: Active
Activity (PBMC [21]): Active
Activity (PBMC [22]): Active
fold change (FC) [23]: 8
Ratio [24]: 1
Ratio [25]: 1
fold change (FC) [26]: 1.9
Ratio [27]: 1
Activity (CD4+ve Th): Active
fold change (FC) (Splenocyte [28]): 10

Source: ChEMBL document CHEMBL4806962, “Methods and Compositions for Treating Cancer” (2020)
